The test system of test [1] is Mus musculus. The test is described as follows: Antiallergic activity in CD-1 mouse model of IgE/DNP-BSA-stimulated passive cutaneous anaphylaxis assessed as inhibition of vascular permeability at 5% administered topically immediately after sensitization by Evans blue extravasation assay. It is filed as functional, organism-based.
Test [2] has as its system Mus musculus. Description: Antiallergic activity in CD-1 mouse model of IgE/DNP-BSA-stimulated passive cutaneous anaphylaxis assessed as inhibition of vascular permeability at 0.1% administered topically immediately after sensitization by Evans blue extravasation assay. It is filed as functional, organism-based.
The test system of test [3] is Mus musculus. The test is described as follows: Antiallergic activity in CD-1 mouse model of IgE/DNP-BSA-stimulated passive cutaneous anaphylaxis assessed as inhibition of vascular permeability at 1% administered topically immediately after sensitization by Evans blue extravasation assay relative to control. It is filed as functional, organism-based.
For test [4], the system named is Mus musculus. Description: Anti-inflammatory activity in tetradecanoylphorbol-13-acetate-induced CD-1 mouse ear edema model assessed as inhibition of ear edema thickness at 1% administered topically immediately after tetradecanoylphorbol-13-acetate treatment and measured 4 hrs post tetradecanoylphorbol-13-acetate treatment relative to control. It is filed as functional.

The subject of test [5] is Mus musculus. The test is described as follows: Anti-inflammatory activity in arachidonic acid-induced CD-1 mouse ear edema model assessed as inhibition of ear edema thickness at 1% administered topically immediately after arachidonic acid treatment and measured 1 hr post arachidonic acid treatment relative to control. In kind it is functional.
The test system of test [6] is Mus musculus. Description: Antiallergic activity in CD-1 mouse model of IgE/DNP-BSA-stimulated passive cutaneous anaphylaxis assessed as inhibition of vascular permeability at 0.2%, iv administered immediately after sensitization by Evans blue extravasation assay. In kind it is functional, organism-based.
The test system of test [7] is Mus musculus. Description: Antiallergic activity in CD-1 mouse model of IgE/DNP-BSA-stimulated passive cutaneous anaphylaxis assessed as inhibition of vascular permeability at 2% administered topically immediately after sensitization by Evans blue extravasation assay relative to control. It is filed as functional.
Test [8] has as its system Mus musculus. Description: Antiallergic activity in CD-1 mouse model of IgE/DNP-BSA-stimulated passive cutaneous anaphylaxis assessed as inhibition of vascular permeability at 4% administered topically as oil-in-water emulsion immediately after sensitization by Evans blue extravasation assay relative to control. In kind it is functional, organism-based.
Test [9] deals with Mus musculus. Description: Antiallergic activity in CD-1 mouse model of IgE/DNP-BSA-stimulated passive cutaneous anaphylaxis assessed as inhibition of vascular permeability at 0.02%, iv administered immediately after sensitization by Evans blue extravasation assay relative to control. It is filed as functional.
Test [10] concerns Mus musculus. The test is described as follows: Anti-inflammatory activity in arachidonic acid-induced CD-1 mouse ear edema model assessed as inhibition of ear edema thickness at 2% administered topically immediately after arachidonic acid treatment and measured 1 hr post arachidonic acid treatment relative to control. In kind it is functional.
In test [11] the test system is Mus musculus. Description: Antiallergic activity in mouse model of picryl-chloride-induced […] allergy at 0.8 mg/kg, po for 5 days relative to control. In kind it is functional.
The subject of test [12] is Mus musculus. The test is described as follows: Antiallergic activity in mouse model of IgE/DNP-BSA-stimulated passive cutaneous anaphylaxis at 5 mg/kg, ip administered as single dose relative to control. It is filed as functional.
Test [13] deals with Mus musculus. The test is described as follows: Anti-inflammatory activity in tetradecanoylphorbol-13-acetate-induced CD-1 mouse ear edema model assessed as inhibition of ear edema thickness administered topically immediately after tetradecanoylphorbol-13-acetate treatment and measured 4 hrs post tetradecanoylphorbol-13-acetate treatment. It is filed as functional, organism-based.

For test [14], the system named is Mus musculus. Description: Anti-inflammatory activity in arachidonic acid-induced CD-1 mouse ear edema model assessed as inhibition of ear edema thickness administered topically immediately after arachidonic acid treatment and measured 1 hr post arachidonic acid treatment. In kind it is functional, organism-based.
Test [15] relates to Mus musculus. Description: Anti-inflammatory activity in tetradecanoylphorbol-13-acetate-induced CD-1 mouse ear edema model assessed as inhibition of ear edema thickness at 0.5% administered topically immediately after tetradecanoylphorbol-13-acetate treatment and measured 4 hrs post tetradecanoylphorbol-13-acetate treatment relative to control. In kind it is functional.
The test system of test [16] is Mus musculus. The test is described as follows: Anti-inflammatory activity in tetradecanoylphorbol-13-acetate-induced CD-1 mouse ear edema model assessed as inhibition of ear edema thickness at 2% administered topically immediately after tetradecanoylphorbol-13-acetate treatment and measured 4 hrs post tetradecanoylphorbol-13-acetate treatment relative to control. In kind it is functional.

Test [17] concerns Mus musculus. The test is described as follows: Anti-inflammatory activity in arachidonic acid-induced CD-1 mouse ear edema model assessed as inhibition of ear edema thickness at 1.3% administered topically immediately after arachidonic acid treatment and measured 1 hr post arachidonic acid treatment. In kind it is functional, organism-based.
For test [18], the system named is Mus musculus. The test is described as follows: Anti-inflammatory activity in tetradecanoylphorbol-13-acetate-induced CD-1 mouse ear edema model assessed as inhibition of ear edema thickness at 1.3% administered topically immediately after tetradecanoylphorbol-13-acetate treatment and measured 4 hrs post tetradecanoylphorbol-13-acetate treatment. It is filed as functional, organism-based.

Activity calls are given as the source filed them. The calls are words filed in the database; no cut-off is given here.

`CC(c1cc2ccccc2s1)N(O)C(N)=O` (centres undefined): in the test with Mus musculus [1], the inhibition result is “Active”.
Regarding `CCC(=O)O[C@]1(C(=O)COC(C)=O)CC[C@H]2[C@@H]3C[C@H](C)C4=CC(=O)C=C[C@]4(C)[C@H]3[C@@H](O)C[C@@]21C`, the inhibition result in the test on Mus musculus [2] was “Active”.
`CN(C)CCC(c1ccc(Cl)cc1)c1ccccn1` (centres undefined): the inhibition entry in the test on Mus musculus [3] was “Active”.
`O=C(O)Cc1ccccc1Nc1c(Cl)cccc1Cl`: the inhibition entry with Mus musculus [4] and with Mus musculus [5] was “Active” throughout.
With `O=C(O)c1cc(=O)c2c(OCC(O)COc3cccc4oc(C(=O)O)cc(=O)c34)cccc2o1`, the inhibition result with Mus musculus [6] is “Active”. For the same compound, the inhibition result in the test with Mus musculus [7] and in the test with Mus musculus [8] was “inactive” in each case.
For `O=C(/C=C/c1ccc(O)cc1)c1c(O)cc(O)cc1O` [4,2',4',6'-TETRAHYDROXYCHALCONE], the “inhibition (INH)” value in the test with Mus musculus [9] is 68%; in the test on Mus musculus [4], 27%; in the test on Mus musculus [7], 55%; in the test with Mus musculus [10] it was 42%. Besides, the Activity in the test with Mus musculus [11] stood at 47%.
For `O=C1C[C@@H](c2ccc(O)cc2)Oc2cc(O)cc(O)c21` [NARINGENIN], the “inhibition (INH)” value in the test with Mus musculus [9] came to 56%; in the test with Mus musculus [4], 56%; with Mus musculus [5], 22%; in the test with Mus musculus [7], 42%; in the test with Mus musculus [10], 56%; in the test with Mus musculus [15], 32%. In the test on Mus musculus [16], the “inhibition (INH)” value was 62%. Further, the Activity was found to be 70% in the test with Mus musculus [12] and 15% in the test with Mus musculus [11]. Also, the inhibition result with Mus musculus [13] and with Mus musculus [14] was “Dose-dependent effect” in each case.
In the case of `O=c1c(O)c(-c2ccc(O)c(O)c2)oc2cc(O)cc(O)c12` [QUERCETIN], in the test on Mus musculus [17], the inhibition entry is “inactive”. The “inhibition (INH)” value in the test with Mus musculus [9] is listed as 80%; with Mus musculus [7], 34%. Moreover, the inhibition entry with Mus musculus [18] was “Active”. For the same compound, in the test with Mus musculus [11], the Activity came to 15%.

These data come from ChEMBL document CHEMBL4330153, “In Vivo Anti-inflammatory and Antiallergic Activity of Pure Naringenin, Naringenin Chalcone, and Quercetin in Mice” (2019).
